Test results: PubChem BioAssay (NCI)
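Interpolation was linear, between the two tested concentrations surrounding the appropriate level; five concentrations were tested over 48 hours in 96-well plates. At the TGI there is no net growth.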

Legend:
Assay in all cases: NCI-60 cell line screen, 48 h
A498 renal = tested on: A498 renal
A549 NSCLC = tested on: A549 NSCLC
ACHN renal = tested on: ACHN renal
BT-549 breast = tested on: BT-549 breast
CAKI-1 renal = tested on: CAKI-1 renal
CCRF-CEM leukemia = tested on: CCRF-CEM leukemia
COLO 205 colon = tested on: COLO 205 colon
DU-145 prostate = tested on: DU-145 prostate
EKVX NSCLC = tested on: EKVX NSCLC
HCC-2998 colon = tested on: HCC-2998 colon
HCT-116 colon = tested on: HCT-116 colon
HCT-15 colon = tested on: HCT-15 colon
HL-60(TB) leukemia = tested on: HL-60(TB) leukemia
HOP-62 NSCLC = tested on: HOP-62 NSCLC
HOP-92 NSCLC = tested on: HOP-92 NSCLC
HS 578T breast = tested on: HS 578T breast
HT29 colon = tested on: HT29 colon
IGROV1 ovarian = tested on: IGROV1 ovarian
K-562 leukemia = tested on: K-562 leukemia
KM12 colon = tested on: KM12 colon
LOX IMVI melanoma = tested on: LOX IMVI melanoma
M14 melanoma = tested on: M14 melanoma
MALME-3M melanoma = tested on: MALME-3M melanoma
MCF7 breast = tested on: MCF7 breast
MDA-MB-231 breast = tested on: MDA-MB-231 breast
MDA-MB-435 = tested on: MDA-MB-435
MDA-N = tested on: MDA-N
MOLT-4 leukemia = tested on: MOLT-4 leukemia
NCI-H23 lung = tested on: NCI-H23 lung
NCI-H460 lung = tested on: NCI-H460 lung
NCI-H522 lung = tested on: NCI-H522 lung
NCI/ADR-RES ovarian = tested on: NCI/ADR-RES ovarian
OVCAR-3 ovarian = tested on: OVCAR-3 ovarian
OVCAR-4 ovarian = tested on: OVCAR-4 ovarian
OVCAR-5 ovarian = tested on: OVCAR-5 ovarian
OVCAR-8 ovarian = tested on: OVCAR-8 ovarian
PC-3 prostate = tested on: PC-3 prostate
RPMI-8226 leukemia = tested on: RPMI-8226 leukemia
RXF 393 renal = tested on: RXF 393 renal
SF-268 CNS = tested on: SF-268 CNS
SF-295 CNS = tested on: SF-295 CNS
SF-539 CNS = tested on: SF-539 CNS
SK-MEL-2 melanoma = tested on: SK-MEL-2 melanoma
SK-MEL-28 melanoma = tested on: SK-MEL-28 melanoma
SK-MEL-5 melanoma = tested on: SK-MEL-5 melanoma
SK-OV-3 ovarian = tested on: SK-OV-3 ovarian
SN12C renal = tested on: SN12C renal
SNB-19 CNS = tested on: SNB-19 CNS
SW-620 colon = tested on: SW-620 colon
T-47D breast = tested on: T-47D breast
TK-10 renal = tested on: TK-10 renal
U251 CNS = tested on: U251 CNS
UACC-257 melanoma = tested on: UACC-257 melanoma
UACC-62 melanoma = tested on: UACC-62 melanoma
UO-31 renal = tested on: UO-31 renal
786-0 renal = tested on: 786-0 renal
NCI-H226 lung = tested on: NCI-H226 lung
SNB-75 CNS = tested on: SNB-75 CNS
SR leukemia = tested on: SR leukemia

Compound: COC(=O)C1=C(C(=O)OC)SC2(S1)C1=C(CCCC1)SC(C(=O)OC)=C2C(=O)OC
- TGI (A498 renal): 19.4 µM
- TGI (A549 NSCLC): 31.1 µM
- TGI (ACHN renal): 18.4 µM
- TGI (BT-549 breast): 25.1 µM
- TGI (CAKI-1 renal): 13.5 µM
- TGI (CCRF-CEM leukemia): 8.16 µM
- TGI (COLO 205 colon): 23.2 µM
- TGI (DU-145 prostate): 3.54 µM
- TGI (EKVX NSCLC): 26.6 µM
- TGI (HCC-2998 colon): 28.2 µM
- TGI (HCT-116 colon): 2.92 µM
- TGI (HCT-15 colon): 18.1 µM
- TGI (HL-60(TB) leukemia): > 100 µM
- TGI (HOP-62 NSCLC): 17.8 µM
- TGI (HOP-92 NSCLC): 18.3 µM
- TGI (HS 578T breast): 30.7 µM
- TGI (HT29 colon): 11.7 µM
- TGI (IGROV1 ovarian): 20.6 µM
- TGI (K-562 leukemia): 21.5 µM
- TGI (KM12 colon): 19 µM
- TGI (LOX IMVI melanoma): 5.3 µM
- TGI (M14 melanoma): 32.5 µM
- TGI (MALME-3M melanoma): 24.3 µM
- TGI (MCF7 breast): 8.43 µM
- TGI (MDA-MB-231 breast): 29.3 µM
- TGI (MDA-MB-435): 10 µM
- TGI (MDA-N): 15.2 µM
- TGI (MOLT-4 leukemia): 11.6 µM
- TGI (NCI-H23 lung): 31.3 µM
- TGI (NCI-H460 lung): 15.7 µM
- TGI (NCI-H522 lung): 4.36 µM
- TGI (NCI/ADR-RES ovarian): 40.9 µM
- TGI (OVCAR-3 ovarian): 18.9 µM
- TGI (OVCAR-4 ovarian): 25.3 µM
- TGI (OVCAR-5 ovarian): 25.4 µM
- TGI (OVCAR-8 ovarian): 17.3 µM
- TGI (PC-3 prostate): 17.8 µM
- TGI (RPMI-8226 leukemia): 17.7 µM
- TGI (RXF 393 renal): 6.91 µM
- TGI (SF-268 CNS): 22.3 µM
- TGI (SF-295 CNS): 27.8 µM
- TGI (SF-539 CNS): 4.27 µM
- TGI (SK-MEL-2 melanoma): 30 µM
- TGI (SK-MEL-28 melanoma): 22.5 µM
- TGI (SK-MEL-5 melanoma): 23.4 µM
- TGI (SK-OV-3 ovarian): 28.1 µM
- TGI (SN12C renal): 14.6 µM
- TGI (SNB-19 CNS): 30.2 µM
- TGI (SW-620 colon): 17.1 µM
- TGI (T-47D breast): 13.5 µM
- TGI (TK-10 renal): 24.7 µM
- TGI (U251 CNS): 19.4 µM
- TGI (UACC-257 melanoma): 28.9 µM
- TGI (UACC-62 melanoma): 25.7 µM
- TGI (UO-31 renal): 10.9 µM

Compound: O=C(O)c1ccc(S(=O)(=O)c2ccccc2[N+](=O)[O-])cc1
- TGI (786-0 renal): > 10 µM
- TGI (A498 renal): > 10 µM
- TGI (A549 NSCLC): > 10 µM
- TGI (ACHN renal): > 10 µM
- TGI (BT-549 breast): > 10 µM
- TGI (CAKI-1 renal): > 10 µM
- TGI (CCRF-CEM leukemia): > 10 µM
- TGI (COLO 205 colon): > 10 µM
- TGI (DU-145 prostate): > 10 µM
- TGI (EKVX NSCLC): > 10 µM
- TGI (HCC-2998 colon): > 10 µM
- TGI (HCT-116 colon): > 10 µM
- TGI (HCT-15 colon): > 10 µM
- TGI (HL-60(TB) leukemia): > 10 µM
- TGI (HOP-62 NSCLC): > 10 µM
- TGI (HS 578T breast): > 10 µM
- TGI (HT29 colon): > 10 µM
- TGI (IGROV1 ovarian): > 10 µM
- TGI (K-562 leukemia): > 10 µM
- TGI (KM12 colon): > 10 µM
- TGI (LOX IMVI melanoma): > 10 µM
- TGI (M14 melanoma): > 10 µM
- TGI (MALME-3M melanoma): > 10 µM
- TGI (MCF7 breast): > 10 µM
- TGI (MDA-MB-231 breast): > 10 µM
- TGI (MDA-MB-435): > 10 µM
- TGI (MDA-N): > 10 µM
- TGI (MOLT-4 leukemia): > 10 µM
- TGI (NCI-H226 lung): > 10 µM
- TGI (NCI-H23 lung): > 10 µM
- TGI (NCI-H460 lung): > 10 µM
- TGI (NCI-H522 lung): > 10 µM
- TGI (NCI/ADR-RES ovarian): > 10 µM
- TGI (OVCAR-3 ovarian): > 10 µM
- TGI (OVCAR-4 ovarian): > 10 µM
- TGI (OVCAR-5 ovarian): > 10 µM
- TGI (OVCAR-8 ovarian): > 10 µM
- TGI (PC-3 prostate): > 10 µM
- TGI (RPMI-8226 leukemia): > 10 µM
- TGI (RXF 393 renal): > 10 µM
- TGI (SF-268 CNS): > 10 µM
- TGI (SF-295 CNS): > 10 µM
- TGI (SF-539 CNS): > 10 µM
- TGI (SK-MEL-2 melanoma): > 10 µM
- TGI (SK-MEL-28 melanoma): > 10 µM
- TGI (SK-MEL-5 melanoma): > 10 µM
- TGI (SK-OV-3 ovarian): > 10 µM
- TGI (SN12C renal): > 10 µM
- TGI (SNB-19 CNS): > 10 µM
- TGI (SNB-75 CNS): > 10 µM
- TGI (SR leukemia): > 10 µM
- TGI (SW-620 colon): > 10 µM
- TGI (T-47D breast): > 10 µM
- TGI (TK-10 renal): > 10 µM
- TGI (U251 CNS): > 10 µM
- TGI (UACC-257 melanoma): > 10 µM
- TGI (UACC-62 melanoma): > 10 µM

Compound: CCOP(=O)(OCC)c1c(C(=O)OC)cc(=O)[nH]c1-c1ccc(C)cc1
- TGI (786-0 renal): > 53.4 µM
- TGI (A498 renal): 53.8 µM
- TGI (A549 NSCLC): 31.5 µM
- TGI (ACHN renal): 9.45 µM
- TGI (BT-549 breast): 20.3 µM
- TGI (CAKI-1 renal): 19 µM
- TGI (CCRF-CEM leukemia): 6.91 µM
- TGI (COLO 205 colon): 15.2 µM
- TGI (DU-145 prostate): 17.5 µM
- TGI (EKVX NSCLC): 17 µM
- TGI (HCC-2998 colon): 33.5 µM
- TGI (HCT-116 colon): > 51.1 µM
- TGI (HCT-15 colon): 27.2 µM
- TGI (HOP-62 NSCLC): 41.7 µM
- TGI (HOP-92 NSCLC): 12.3 µM
- TGI (HS 578T breast): 49.1 µM
- TGI (HT29 colon): 42.1 µM
- TGI (IGROV1 ovarian): 20.6 µM
- TGI (K-562 leukemia): > 78.4 µM
- TGI (KM12 colon): 33.6 µM
- TGI (LOX IMVI melanoma): > 100 µM
- TGI (M14 melanoma): 27.8 µM
- TGI (MALME-3M melanoma): 19.9 µM
- TGI (MCF7 breast): > 49.7 µM
- TGI (MDA-MB-231 breast): 76.3 µM
- TGI (MDA-MB-435): 37.4 µM
- TGI (MDA-N): > 61.1 µM
- TGI (MOLT-4 leukemia): 20.6 µM
- TGI (NCI-H226 lung): 29.6 µM
- TGI (NCI-H23 lung): 33.5 µM
- TGI (NCI-H460 lung): 43.4 µM
- TGI (NCI-H522 lung): 3.03 µM
- TGI (NCI/ADR-RES ovarian): > 57.5 µM
- TGI (OVCAR-3 ovarian): 25.2 µM
- TGI (OVCAR-4 ovarian): 22.5 µM
- TGI (OVCAR-5 ovarian): 20.5 µM
- TGI (OVCAR-8 ovarian): > 47.1 µM
- TGI (PC-3 prostate): 34.2 µM
- TGI (RPMI-8226 leukemia): 19.8 µM
- TGI (RXF 393 renal): 27.3 µM
- TGI (SF-268 CNS): > 52.1 µM
- TGI (SF-295 CNS): 40.9 µM
- TGI (SF-539 CNS): 23 µM
- TGI (SK-MEL-2 melanoma): 32.4 µM
- TGI (SK-MEL-28 melanoma): 34.7 µM
- TGI (SK-MEL-5 melanoma): 28.8 µM
- TGI (SK-OV-3 ovarian): 49.4 µM
- TGI (SN12C renal): > 57 µM
- TGI (SNB-19 CNS): > 54.3 µM
- TGI (SNB-75 CNS): 29.3 µM
- TGI (SR leukemia): 11.5 µM
- TGI (SW-620 colon): 23.5 µM
- TGI (T-47D breast): 18.1 µM
- TGI (TK-10 renal): 27.9 µM
- TGI (U251 CNS): 29.3 µM
- TGI (UACC-257 melanoma): 30.1 µM
- TGI (UACC-62 melanoma): 20.4 µM
- TGI (UO-31 renal): 13.8 µM
